The target of the experiment is T1, human TRPA1 (Homo sapiens, UniProt O75762).
T1 construct: expressed in transfected cells; host or cells: CHO cells
The experiment is described as follows: TRPA1 FLIPR Tetra calcium influx assay in CHO cells (block of cinnamaldehyde-induced calcium influx). It counts as cell-based. Conditions: Table 2; CHO cells expressing TRPA1; agonist cinnamaldehyde 75 uM; 20 min compound incubation; Hill coefficient fixed to 1.5; read-out: hTRPA1 CHO Ca2+ AUC EVO (IC50). As to the method: IC50s (effective concentration) of compounds on the human and rat TRPA1 channels were determined using a FLIPR Tetra instrument. CHO cells expressing TRPA1 were plated into 384-well plates, incubated overnight at 37 C, and loaded with BD calcium indicator dye for 1 hr at 37° C. followed by 15 minutes at room temperature. The assay buffer was Hank's Balanced Salt Solution (HBSS) containing 20 mM HEPES (pH readjusted to 7.4) along with 0.02% BSA.
Following dye load and plate cool down, compounds were added to the cells using FLIPR Tetra. Plates were then incubated with compounds for 20 minutes at room temperature prior to adding agonist. Following this incubation, ˜EC80 concentration of cinnamaldehyde (75 uM for human TRPA1 and 45 uM for rat TRPA1) was added to active the channels and block of cinnamaldehyde induced calcium influx was measured.
IC50s were fit with a standard Hill function, keeping the Hill coefficient (n) fixed to 1.5. Fixing the Hill coefficient will generally reduce variability of the IC50 determination. The IC50s were individually examined to make sure the MIN and MAX points were set correctly prior to validation of the results.

Consider 23 molecules from patent US10179782B2, “Substituted sulfonamide compounds” (Genentech, Inc., priority 2016, dated 2019).

T1 sequence (O75762 whole entry): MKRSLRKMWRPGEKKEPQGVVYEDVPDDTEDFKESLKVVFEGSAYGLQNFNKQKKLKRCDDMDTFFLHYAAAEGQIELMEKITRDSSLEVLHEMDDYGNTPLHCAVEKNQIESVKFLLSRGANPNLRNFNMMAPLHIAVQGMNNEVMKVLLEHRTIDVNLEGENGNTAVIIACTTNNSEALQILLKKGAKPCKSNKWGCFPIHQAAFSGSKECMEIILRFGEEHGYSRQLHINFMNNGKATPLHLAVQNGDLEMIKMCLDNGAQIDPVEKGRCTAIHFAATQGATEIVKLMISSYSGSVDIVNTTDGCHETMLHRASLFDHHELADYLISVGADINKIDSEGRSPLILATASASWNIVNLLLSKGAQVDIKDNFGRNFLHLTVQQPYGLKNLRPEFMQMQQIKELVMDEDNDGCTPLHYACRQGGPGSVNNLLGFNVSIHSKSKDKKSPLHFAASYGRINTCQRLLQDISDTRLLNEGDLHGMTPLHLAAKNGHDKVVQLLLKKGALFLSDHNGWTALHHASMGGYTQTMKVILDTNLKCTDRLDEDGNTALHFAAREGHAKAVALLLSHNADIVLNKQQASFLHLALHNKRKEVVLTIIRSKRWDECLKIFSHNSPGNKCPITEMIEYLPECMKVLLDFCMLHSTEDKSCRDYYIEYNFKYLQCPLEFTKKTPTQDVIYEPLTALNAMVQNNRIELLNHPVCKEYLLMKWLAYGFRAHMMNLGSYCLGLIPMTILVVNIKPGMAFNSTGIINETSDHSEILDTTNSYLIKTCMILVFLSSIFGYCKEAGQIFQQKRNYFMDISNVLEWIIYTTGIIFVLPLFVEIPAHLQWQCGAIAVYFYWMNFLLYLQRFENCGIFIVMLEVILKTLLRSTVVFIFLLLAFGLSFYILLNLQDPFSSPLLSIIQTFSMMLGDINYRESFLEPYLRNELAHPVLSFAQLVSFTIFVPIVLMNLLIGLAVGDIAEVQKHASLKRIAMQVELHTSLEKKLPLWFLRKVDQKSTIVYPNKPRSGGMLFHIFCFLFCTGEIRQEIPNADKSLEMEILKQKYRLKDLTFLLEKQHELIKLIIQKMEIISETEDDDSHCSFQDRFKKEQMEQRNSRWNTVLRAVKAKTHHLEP

Consider `O=C(NCc1cc(-c2cnc(C(F)(F)F)nc2)ncc1F)[C@@H]1C[C@@H]2C[C@@H]2N1S(=O)(=O)c1ccc(F)cc1` [Example 15, (1S,3S,5S)-2-(4-fluorophenyl)sulfonyl-N-[[5-fluoro-2-[2-(trifluoromethyl)pyrimidin-5-yl]-4-pyridyl]methyl]-2-azabicyclo[3.1.0]hexane-3-carboxamide], for which the IC50 amounted to 0.6 nM. Turning to `O=C(NCc1cc(-c2cnc(C(F)(F)F)nc2)ccc1F)[C@@H]1C[C@@H]2C[C@@H]2N1S(=O)(=O)c1ccc(F)cc1` [Example 16, (1S,3S,5S)-2-(4-fluorophenyl)sulfonyl-N-[[2-fluoro-5-[2-(trifluoromethyl)pyrimidin-5-yl]phenyl]methyl]-2-azabicyclo[3.1.0]hexane-3-carboxamide], the IC50 was 2.12 nM. With `C[C@H]1CC[C@@H](C(=O)NCc2cc(-c3cnc(C(F)(F)F)nc3)ncc2F)N1S(=O)(=O)c1ccc(F)cc1` [Example 17, (2S,5S)-1-(4-fluorophenyl)sulfonyl-N-[[5-fluoro-2-[2-(trifluoromethyl)pyrimidin-5-yl]-4-pyridyl]methyl]-5-methyl-pyrrolidine-2-carboxamide] the figure was 1.37 nM. With `O=C(NCc1cc(-c2cnc(C(F)(F)F)nc2)ncn1)[C@@H]1C[C@@H]2C[C@@H]2N1S(=O)(=O)c1ccc(F)cc1` [Example 18, (1S,3S,5S)-2-(4-fluorophenyl)sulfonyl-N-[[6-[2-(trifluoromethyl)pyrimidin-5-yl]pyrimidin-4-yl]methyl]-2-azabicyclo[3.1.0]hexane-3-carboxamide] the figure was 29.8 nM; with `C[C@H]1CC[C@@H](C(=O)NCc2cc(-c3cnc(C(F)(F)F)nc3)ncn2)N1S(=O)(=O)c1ccc(F)cc1` [Example 19, (2S,5S)-1-(4-fluorophenyl)sulfonyl-5-methyl-N-[[6-[2-(trifluoromethyl)pyrimidin-5-yl]pyrimidin-4-yl]methyl]pyrrolidine-2-carboxamide], 5.22 nM; with `CC[C@H]1CC[C@@H](C(=O)NCc2cc(-c3cnc(C(F)(F)F)nc3)ncn2)N1S(=O)(=O)c1ccc(F)cc1` [Example 20, (2S,5S)-5-ethyl-1-(4-fluorophenyl)sulfonyl-N-[[6-[2-(trifluoromethyl)pyrimidin-5-yl]pyrimidin-4-yl]methyl]pyrrolidine-2-carboxamide], 10.9 nM. For `O=C(NCc1cc(-c2cnc(C(F)(F)F)nc2)ncn1)[C@@H]1CC[C@H](C2CC2)N1S(=O)(=O)c1ccc(F)cc1` [Example 21, (2S,5R)-5-cyclopropyl-1-(4-fluorophenyl)sulfonyl-N-[[6-[2-(trifluoromethyl)pyrimidin-5-yl]pyrimidin-4-yl]methyl]pyrrolidine-2-carboxamide], the IC50 is 71.3 nM. `O=C(NCc1cc(-c2cnc(C(F)(F)F)nc2)ncn1)[C@H]1CC[C@@H](C(F)(F)F)N1S(=O)(=O)c1ccc(F)cc1` [Example 22, (2R,5S)-1-(4-fluorophenyl)sulfonyl-5-(trifluoromethyl)-N-[[6-[2-(trifluoromethyl)pyrimidin-5-yl]pyrimidin-4-yl]methyl]pyrrolidine-2-carboxamide]: the IC50 amounted to 3610 nM.

On to `C[C@H]1[C@H](F)C[C@@H](C(=O)NCc2cc(-c3ccc(C(F)(F)F)nc3)ncn2)N1S(=O)(=O)c1ccc(F)cc1` [Example 23, (2S,4R,5S)-4-fluoro-1-(4-fluorophenyl)sulfonyl-5-methyl-N-[[6-[6-(trifluoromethyl)-3-pyridyl]pyrimidin-4-yl]methyl]pyrrolidine-2-carboxamide], for which the IC50 worked out at 85.6 nM. On to `C[C@H]1[C@H](F)C[C@@H](C(=O)NCc2cc(-c3cnc(C(F)(F)F)nc3)ncc2OC(F)F)N1S(=O)(=O)c1ccc(F)cc1` [Example 24, (2S,4R,5S)-N-((5-(difluoromethoxy)-2-(2-(trifluoromethyl)pyrimidin-5-yl)pyridin-4-yl)methyl)-4-fluoro-1-(4-fluorophenylsulfonyl)-5-methylpyrrolidine-2-carboxamide], for which the IC50 was 19.3 nM.

For `C[C@H]1[C@H](F)C[C@@H](C(=O)NCc2cc(N3CC(OC(F)(F)F)C3)ncn2)N1S(=O)(=O)c1ccc(F)cc1` [Example 25, (2S,4R,5S)-4-fluoro-1-(4-fluorophenylsulfonyl)-5-methyl-N-((6-(3-(trifluoromethoxy)azetidin-1-yl)pyrimidin-4-yl)methyl)pyrrolidine-2-carboxamide], the IC50 turned out to be 2400 nM. With `C[C@H]1[C@H](F)C[C@@H](C(=O)NCc2cc(-c3ccc(C(F)(F)F)nc3)ncc2F)N1S(=O)(=O)c1ccc(F)cc1` [Example 26, (2S,4R,5S)-4-fluoro-N-((5-fluoro-6′-(trifluoromethyl)-2,3′-bipyridin-4-yl)methyl)-1-(4-fluorophenylsulfonyl)-5-methylpyrrolidine-2-carboxamide] the figure was 41.2 nM.

In the case of `C[C@H]1[C@H](F)C[C@@H](C(=O)NCc2cc(-c3cnc(C(F)(F)F)nc3)ncc2F)N1S(=O)(=O)c1ccccc1` [Example 27, (2S,4R,5S)-4-fluoro-N-((5-fluoro-2-(2-(trifluoromethyl)pyrimidin-5-yl)pyridin-4-yl)methyl)-5-methyl-1-(phenylsulfonyl)pyrrolidine-2-carboxamide], the IC50 was found to be 46.4 nM. The figure for `C[C@H]1[C@H](F)C[C@@H](C(=O)NCc2cc(-c3cnc(C(F)(F)F)nc3)ncc2F)N1S(=O)(=O)c1ccc(F)c(F)c1` [Example 28, (2S,4R,5S)-1-(3,4-difluorophenylsulfonyl)-4-fluoro-N-((5-fluoro-2-(2-(trifluoromethyl)pyrimidin-5-yl)pyridin-4-yl)methyl)-5-methylpyrrolidine-2-carboxamide] is 6.96 nM. The figure for `C[C@H]1[C@H](F)C[C@@H](C(=O)NCc2cc(-c3cnc(C(F)(F)F)nc3)ccn2)N1S(=O)(=O)c1ccc(F)cc1` [Example 29, (2S,4R,5S)-4-fluoro-1-(4-fluorophenylsulfonyl)-5-methyl-N-((4-(2-(trifluoromethyl)pyrimidin-5-yl)pyridin-2-yl)methyl)pyrrolidine-2-carboxamide] is 113 nM; for `C[C@H]1[C@H](F)C[C@@H](C(=O)NCc2cc(-c3cnc(C(F)(F)F)nc3)c(F)cc2C#N)N1S(=O)(=O)c1ccc(F)cc1` [Example 30, (2S,4R,5S)-N-(2-cyano-4-fluoro-5-(2-(trifluoromethyl)pyrimidin-5-yl)benzyl)-4-fluoro-1-(4-fluorophenylsulfonyl)-5-methylpyrrolidine-2-carboxamide] it is 8.65 nM.

For the molecule `C[C@H]1[C@H](F)C[C@@H](C(=O)NCc2cc(-c3ccc(C(F)(F)F)cn3)ccn2)N1S(=O)(=O)c1ccc(F)cc1` [Example 31, (2S,4R,5S)-4-fluoro-1-(4-fluorophenylsulfonyl)-5-methyl-N-((5-(trifluoromethyl)-2,4′-bipyridin-2′-yl)methyl)pyrrolidine-2-carboxamide], the IC50 was determined as 58.7 nM.

Turning to `C[C@H]1[C@H](F)C[C@@H](C(=O)NCc2cc(-c3cnc(C(F)(F)F)nc3)c(Cl)cn2)N1S(=O)(=O)c1ccc(F)cc1` [Example 32, (2S,4R,5S)-N-((5-chloro-4-(2-(trifluoromethyl)pyrimidin-5-yl)pyridin-2-yl)methyl)-4-fluoro-1-(4-fluorophenylsulfonyl)-5-methylpyrrolidine-2-carboxamide], the IC50 came to 10.4 nM. For the molecule `C[C@H]1[C@H](F)C[C@@H](C(=O)NCc2cc(-c3cnc(C(F)(F)F)nc3)ccc2C#N)N1S(=O)(=O)c1ccc(F)cc1` [Example 33, (2S,4R,5S)-N-([2-cyano-5-[2-(trifluoromethyl)pyrimidin-5-yl]phenyl]methyl)-4-fluoro-1-[(4-fluorobenzene)sulfonyl]-5-methylpyrrolidine-2-carboxamide], the IC50 worked out at 3.58 nM.

In the case of `C[C@H]1[C@H](F)C[C@@H](C(=O)NCc2cc(-c3cnc(C(F)(F)F)nc3)c(F)cn2)N1S(=O)(=O)c1ccc(F)cc1` [Example 34, (2S,4R,5S)-4-fluoro-N-([5-fluoro-4-[2-(trifluoromethyl)pyrimidin-5-yl]pyridin-2-yl]methyl)-1-[(4-fluorobenzene)sulfonyl]-5-methylpyrrolidine-2-carboxamide], the IC50 was 38.8 nM. With `COc1cnc(CNC(=O)[C@@H]2C[C@@H](F)[C@H](C)N2S(=O)(=O)c2ccc(F)cc2)cc1-c1cnc(C(F)(F)F)nc1` [Example 35, (2S,4R,5S)-4-fluoro-1-[(4-fluorobenzene)sulfonyl]-N-([5-methoxy-4-[2-(trifluoromethyl)pyrimidin-5-yl]pyridin-2-yl]methyl)-5-methylpyrrolidine-2-carboxamide] the figure was 53.1 nM. The figure for `C[C@H]1[C@H](F)C[C@@H](C(=O)NCc2cc(-c3ccc(C(F)(F)F)nc3)c(F)cn2)N1S(=O)(=O)c1ccc(F)cc1` [Example 36, (2S,4R,5S)-4-fluoro-N-([5-fluoro-4-[6-(trifluoromethyl)pyridin-3-yl]pyridin-2-yl]methyl)-1-[(4-fluorobenzene)sulfonyl]-5-methylpyrrolidine-2-carboxamide] is 26 nM.

Take `C[C@H]1[C@H](F)C[C@@H](C(=O)NCc2cc(-c3cnc(C(F)(F)F)nc3)nc(C3CC3)n2)N1S(=O)(=O)c1ccc(F)cc1` [Example 37, (2S,4R,5S)-N-([2-cyclopropyl-6-[2-(trifluoromethyl)pyrimidin-5-yl]pyrimidin-4-yl]methyl)-4-fluoro-1-[(4-fluorobenzene)sulfonyl]-5-methylpyrrolidine-2-carboxamide]: the IC50 was 5.4 nM.

One may read the IC50 as the concentration that inhibits the measured activity by half.
